In ChEMBL document CHEMBL2150924, “Inhibition of NaV1.6 sodium channel currents by a novel series of 1,4-disubstituted-triazole derivatives obtained via copper-catalyzed click chemistry” (Bioorg Med Chem Lett, 2012) one finds inhibition and IC50 data, which are given here for 14 molecules.

The target of assay [1] is Sodium channel protein type 8 subunit alpha (Rattus norvegicus) (UniProt O88420). In words: Inhibition of rat NaV1.6-mediated current expressed in human HEK293 cells at 10 uM by patch clamp assay. In kind it is cell-based.
Sodium channel protein type 8 subunit alpha (Rattus norvegicus), sequence (O88420 whole entry): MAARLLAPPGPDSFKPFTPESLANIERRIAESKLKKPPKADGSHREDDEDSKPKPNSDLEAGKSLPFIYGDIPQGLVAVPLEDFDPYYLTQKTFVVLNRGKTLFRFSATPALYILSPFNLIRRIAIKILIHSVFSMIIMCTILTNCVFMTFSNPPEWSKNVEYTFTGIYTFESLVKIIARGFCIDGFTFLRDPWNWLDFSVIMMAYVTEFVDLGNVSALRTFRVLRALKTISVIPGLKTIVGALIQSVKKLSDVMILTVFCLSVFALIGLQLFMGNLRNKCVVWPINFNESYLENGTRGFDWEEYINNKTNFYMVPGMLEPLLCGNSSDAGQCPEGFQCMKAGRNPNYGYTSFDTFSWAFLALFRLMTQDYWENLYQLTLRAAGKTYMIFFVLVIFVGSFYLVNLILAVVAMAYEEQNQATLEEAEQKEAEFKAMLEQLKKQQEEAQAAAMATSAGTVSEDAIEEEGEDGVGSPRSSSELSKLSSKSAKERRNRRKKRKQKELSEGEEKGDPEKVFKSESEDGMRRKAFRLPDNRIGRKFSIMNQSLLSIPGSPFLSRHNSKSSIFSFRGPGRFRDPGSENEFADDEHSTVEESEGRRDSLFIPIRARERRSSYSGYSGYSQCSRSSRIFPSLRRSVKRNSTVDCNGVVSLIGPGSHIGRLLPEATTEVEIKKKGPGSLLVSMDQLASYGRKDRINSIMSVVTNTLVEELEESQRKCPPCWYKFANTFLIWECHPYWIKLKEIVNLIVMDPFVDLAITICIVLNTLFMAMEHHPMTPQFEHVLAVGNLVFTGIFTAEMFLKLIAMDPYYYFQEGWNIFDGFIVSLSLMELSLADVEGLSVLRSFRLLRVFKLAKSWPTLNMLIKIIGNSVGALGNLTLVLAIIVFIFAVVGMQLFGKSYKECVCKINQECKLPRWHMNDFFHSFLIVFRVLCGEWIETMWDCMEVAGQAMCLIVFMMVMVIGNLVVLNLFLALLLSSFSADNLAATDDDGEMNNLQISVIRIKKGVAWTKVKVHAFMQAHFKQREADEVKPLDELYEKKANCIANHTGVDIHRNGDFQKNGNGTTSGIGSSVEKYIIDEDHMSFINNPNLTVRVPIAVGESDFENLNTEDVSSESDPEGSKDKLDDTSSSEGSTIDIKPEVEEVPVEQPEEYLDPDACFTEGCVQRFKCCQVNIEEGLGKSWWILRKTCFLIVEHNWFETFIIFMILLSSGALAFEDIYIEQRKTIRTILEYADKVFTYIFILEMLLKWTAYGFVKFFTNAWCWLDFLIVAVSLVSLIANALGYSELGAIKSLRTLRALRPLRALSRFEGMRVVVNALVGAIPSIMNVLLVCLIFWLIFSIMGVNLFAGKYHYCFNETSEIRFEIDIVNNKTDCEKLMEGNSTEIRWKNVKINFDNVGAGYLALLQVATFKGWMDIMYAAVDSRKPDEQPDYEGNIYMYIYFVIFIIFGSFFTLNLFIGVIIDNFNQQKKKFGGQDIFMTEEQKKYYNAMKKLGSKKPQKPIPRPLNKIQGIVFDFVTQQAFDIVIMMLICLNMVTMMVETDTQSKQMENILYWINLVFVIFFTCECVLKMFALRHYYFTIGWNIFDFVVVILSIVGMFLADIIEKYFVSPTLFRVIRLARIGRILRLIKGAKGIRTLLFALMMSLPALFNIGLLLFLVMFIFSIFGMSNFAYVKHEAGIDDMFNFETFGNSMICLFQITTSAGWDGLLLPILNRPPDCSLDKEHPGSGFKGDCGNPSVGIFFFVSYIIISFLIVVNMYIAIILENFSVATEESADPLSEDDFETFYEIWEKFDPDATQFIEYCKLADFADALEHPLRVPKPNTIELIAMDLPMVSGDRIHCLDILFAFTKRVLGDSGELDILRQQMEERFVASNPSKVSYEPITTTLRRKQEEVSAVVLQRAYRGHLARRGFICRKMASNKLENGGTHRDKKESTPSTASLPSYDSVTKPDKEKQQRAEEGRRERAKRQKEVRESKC
The target in assay [2] is Sodium channel protein type 8 subunit alpha (Rattus norvegicus, UniProt O88420). Description: Inhibition of rat NaV1.6-mediated current expressed in human HEK293 cells by patch clamp assay. Format: cell-based. For orientation: The patch-clamp technique gives a direct electrical read-out from membranes.
Sodium channel protein type 8 subunit alpha, sequence (O88420 whole entry): as above

Broadly, the inhibition is how much of the control response was suppressed. Low readings indicate a response near the control, high ones a response far below the control. The term IC50 denotes the concentration that inhibits the measured activity by half. The low end stands for greater potency, the high end for weaker potency.

With `c1ccc(OCc2cn(-c3ccccc3)nn2)cc1`, in assay [1], the inhibition is 16%. In assay [2], this molecule had an IC50 of 28.5 µM.
In turn, `c1ccc(CCn2cc(COc3ccccc3)nn2)cc1` registered an inhibition in assay [1] of 8.9%.
Consider `c1ccc(CCn2cc(CCCOc3ccccc3)nn2)cc1`, for which the inhibition in assay [1] was 22.7%. In assay [2], this molecule gave a half-maximal inhibitory concentration (IC50) of 52 µM.
`c1ccc(-c2c[nH]c(-c3ccccc3)n2)cc1` had an inhibition in assay [1] of 16%.
`c1ccc(Cn2cc(CCCOc3ccccc3)nn2)cc1` returned an inhibition in assay [1] of 26%. In assay [2], this molecule gave a concentration for half-maximal inhibition (IC50) of 31.7 µM.
Turning to `c1ccc(-c2cn(-c3ccccc3)nn2)cc1`, in assay [1], the inhibition came to 6.2%.
In the case of `O=C(Cn1cc(-c2ccccc2)nn1)c1ccccc1`, the inhibition in assay [1] came to 3.9%.
In assay [1], `c1ccc(Cn2cc(-c3ccccc3)nn2)cc1` had an inhibition of 10%. The molecule further yielded an IC50 in assay [2] of 125 µM.
In assay [1], `c1ccc(CCn2cc(-c3ccccc3)nn2)cc1` gave an inhibition of 11.5%.
Still for that read-out and setting: for `O=C(Cn1cc(COc2ccccc2)nn1)c1ccccc1` the value was 13.6%.
`c1ccc(Cn2cc(COc3ccccc3)nn2)cc1`: the inhibition in assay [1] turned out to be 11%.
Still for that read-out and setting: for `c1ccc(OCCCc2cn(-c3ccccc3)nn2)cc1` the value was 5.9%.
`COc1ccc(-c2nc(-c3ccccc3)c[nH]2)cc1`: in assay [1], the inhibition is 21.7%. In assay [2], this molecule yielded an IC50 of 19.6 µM.
The corresponding values for `O=C(Cn1cc(CCCOc2ccccc2)nn1)c1ccccc1` are 22.7% and 53.6 µM.
